pIC50: −log10 of the molar value. “Also recorded” adds a separate entry of the source.
Legend:
Format in all cases: biochemical
cathepsin B = biological target: T1, cathepsin B (Homo sapiens, UniProt P07858); assay: Inhibition of peptide library cleavages characterized by MSP-MS; conditions: 64 nM inhibitor
T1 construct: purchased R&D Systems 953-CY-010
Experimental: Cathepsin B cleavage site analysis by multiplex substrate profiling by mass spectrometry (MSP-MS). Cathepsin B activity (activated) was titrated with E64c to calculate the concentration of active cathepsin B. For MSP-MS assays, cathepsin B (0.1 ng/μL, activated) was incubated with a peptide library of 228 14-mer peptides, each at 0.5 μM peptide, in buffer consisting of 50 mM citrate phosphate of pH 7.2 or pH 4.6, 1 mM EDTA, 100 mM NaCl and 4 mM DTT (total volume of 46 μL). After incubation for […] at 25° C., 20 μL aliquots were removed and combined with 80 μL of 8 M urea. An inactivated cathepsin B control consisted of cathepsin B in assay buffer combined with 8 M urea for 60 minutes at 25° C. for denaturation, followed by addition of the peptide library. After incubation, samples were acidified by addition of 40 μL of 2% FA, desalted using C18 LTS Tips (Rainin), evaporated to dryness in a vacuum centrifuge, and stored at −70° C. Samples were resuspended in 20 μL of 0.1% FA (solvent A) and 1 μL was used for LC-MS/MS analysis. All MSP-MS conditions were conducted in quadruplicate assays.
Inhibitor inhibition of peptide cleavages characterized by MSP-MS. […]

cathepsin H = biological target: T2, cathepsin H (Homo sapiens, UniProt P09668); assay: Specificity of inhibitors: cathepsin H (Arg-AMC substrate)
T2 construct: purchased R&D Systems 75116-CY-010
Experimental: (§1) Specificity of inhibitors for other cysteine cathepsin proteases. The effects of Z-Arg-Lys-AOMK and Z-Glu-Lys-AOMK on cathepsin V, L, K, S, X, H and C activities were assessed. IC50 values were calculated at pH 4.6 and pH 7.2 conditions, consisting of 40 mM citrate phosphate, 1 mM EDTA, 100 mM NaCl, and 5 mM DTT. The inhibitor concentrations ranged from 16.38 μM to 256 nM with 2-fold serial dilutions. […] Cathepsin V (0.04 ng/μL), cathepsin L (0.03 ng/μL), cathepsin K (0.10 ng/μL), cathepsin S (0.20 ng/uL) were assayed with 40 μM Z-Phe-Arg-AMC. Cathepsin X (0.20 ng/uL), cathepsin C (0.51 ng/uL) and cathepsin H (0.1 ng/μL) were assayed with 40 μM of MCA-Arg-Pro-Pro-Gly-Phe-Ser-Ala-Phe-Lys(Dnp)OH (SEQ ID NO: 2), Gly-Arg-AMC, and Arg-AMC, respectively. Activation of pro-cathepsin H to cathepsin H was conducted by incubation of cathepsin H (4.4 ng/μL) with cathepsin L (1.1 ng/μL) at RT for 2 hrs in activation buffer (20 mM citrate phosphate pH 6.0, 100 mM NaCl, and 5 mM DTT). Cathepsin C (13.78 ng/μL) was activated by incubation with cathepsin L (3.4 ng/μL) at RT for one hr in activation buffer (20 mM citrate phosphate, pH 6.0, 100 mM NaCl, 5 mM DTT). […] For all assays containing peptide-AMC substrates the fluorescent microplate reader settings were the same as outlined above for cathepsin B. For the cathepsin X assay, the plate reader was set to excitation 320 nm, emission 400 nm, gain 105, top optics and read height 1 mm. To convert RFU/s to picomol/min, 10 μM to 0.005 μM (2-fold serial dilution) of MCA-Arg-Pro-Pro-Gly-Phe-Ser-Ala-Phe-Lys(Dnp)OH (SEQ ID NO: 2) was fully hydrolyzed with excess cathepsin X and a standard curve was generated using the total fluorescence values calculated at each concentration.

cathepsin L = biological target: T3, cathepsin L (Homo sapiens, UniProt P07711); assay: Specificity of inhibitors: cathepsin L (Z-Phe-Arg-AMC substrate)
T3 construct: purchased R&D Systems 952-CY-010
Experimental: as §1

T3 sequence (P07711 114-333): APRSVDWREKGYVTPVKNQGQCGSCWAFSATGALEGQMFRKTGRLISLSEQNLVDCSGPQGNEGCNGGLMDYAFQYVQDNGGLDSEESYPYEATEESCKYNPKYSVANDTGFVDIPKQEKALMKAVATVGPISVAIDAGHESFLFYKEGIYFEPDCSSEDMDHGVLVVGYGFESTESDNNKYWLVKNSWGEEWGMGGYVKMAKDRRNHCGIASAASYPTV
T2 sequence (P09668 116-335 limits assumed, other chains not shown): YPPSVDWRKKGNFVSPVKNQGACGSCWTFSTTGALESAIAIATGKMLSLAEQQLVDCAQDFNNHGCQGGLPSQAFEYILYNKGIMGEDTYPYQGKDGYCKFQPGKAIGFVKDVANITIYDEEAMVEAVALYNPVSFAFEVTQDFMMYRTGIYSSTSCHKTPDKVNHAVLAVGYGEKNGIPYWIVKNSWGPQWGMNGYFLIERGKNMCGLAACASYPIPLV

Cc1cccc(C)c1C(=O)OCC(=O)C(CCCCN)NC(=O)C(CCCNC(=N)N)NC(=O)OCc1ccccc1 (stereo not drawn) [Z-Arg-Lys-AOMK]
inhibition of cathepsin B cleavage of peptide library substrates (cathepsin B; pH 4.6): does not inhibit; also recorded: did not inhibit | inhibition of cathepsin B cleavage of peptide library substrates (cathepsin B; pH 7.2, 1 hr incubation): inhibits; also recorded: completely inhibited | pIC50 (cathepsin H; cathepsin H, pH 4.6): < 4.80 | pIC50 (cathepsin H; cathepsin H, pH 7.2): < 4.80 | inhibition at 16 µM (cathepsin H; cathepsin H, pH 7.2, 16,000 nM inhibitor): 29% | inhibition of cathepsin H (cathepsin H; pH 4.6, inhibitor at 16 μM): no inhibition | inhibition of cathepsin H (cathepsin H; pH 7.2, inhibitor at 16 μM): minimally inhibited | pIC50 (cathepsin L; cathepsin L, pH 4.6): < 4.80 | inhibition at 16 µM (cathepsin L; cathepsin L, pH 4.6, 16,000 nM inhibitor): 32% | inhibition of cathepsin L (cathepsin L; pH 4.6, inhibitor at 16 μM): minimal inhibition

Source: US20240181068A1, “SELECTIVE NEUTRAL PH INHIBITOR OF CATHEPSIN B” (The Regents of the University of California, priority 2021, published 2024)
